According to patent publication US6706747B2, “Conformationally rigid bicyclic and adamantane derivatives useful as α2-adrenergic blocking agents” (Allergan, Inc., priority 1994, dated 2004):

What follows are compounds tested against T1, HT-29(α2A) (Homo sapiens, UniProt P08913) (assay: Radioligand binding, [3H]rauwolscine, HT-29 cell membranes). Conditions: values marked *: HT-29 cells, 22° C., 30 minutes.
T1 construct: HT-29 and chinese hamster ovary (CHO) cells expressing the human α2A (CHO—C10) receptor; endogenous in cells; host or cells: HT-29
T1 sequence (P08913 1-465): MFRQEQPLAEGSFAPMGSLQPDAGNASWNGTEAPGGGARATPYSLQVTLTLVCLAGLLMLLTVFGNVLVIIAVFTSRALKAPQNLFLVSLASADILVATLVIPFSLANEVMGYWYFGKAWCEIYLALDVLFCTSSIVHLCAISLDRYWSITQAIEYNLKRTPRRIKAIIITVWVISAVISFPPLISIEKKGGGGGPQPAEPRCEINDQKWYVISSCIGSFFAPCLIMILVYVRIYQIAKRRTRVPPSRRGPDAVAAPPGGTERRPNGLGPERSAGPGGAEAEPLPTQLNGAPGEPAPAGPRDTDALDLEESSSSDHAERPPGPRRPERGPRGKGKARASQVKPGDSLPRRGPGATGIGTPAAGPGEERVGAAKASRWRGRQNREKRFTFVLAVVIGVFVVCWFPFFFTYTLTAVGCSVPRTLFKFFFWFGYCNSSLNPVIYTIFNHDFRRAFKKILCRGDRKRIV
Protocol: Cell preparation: HT-29 and chinese hamster ovary (CHO) cells expressing the human α2A (CHO—C10) receptor and CHO cells (CHO—RNG) expressing the rat α2B adrenoceptor were grown to near confluency in Dulbecco's modified Eagle's medium supplemented with 10% fetal bovine serum using standard cell culture methods. Cells were harvested by scraping and placed into cold buffer of the following composition: 50 mM Tris-HCl, 5 mM EDTA, pH 7.4). Cells were then homogenized with a Polytron homogenizer for 2×10 secs at setting # 7, arid centrifuged for 20 minutes at 49,000×g. The pellet fraction was washed (resuspended in Tris-HCl, pH 8 buffer and centrifuged for 15-20 minutes at 49,000×g) 2 times and stored at −100° C. until binding assay.
Binding studies: The radioligands [^3H]rauwolscine (specific activity 80 Ci/mmol) and [^3H]prazosin (specific activity 76 Ci/mmol) were obtained from New England Nuclear, Boston, Mass. Frozen membrane pellet was resuspended in 25 mM glycine/glycine, pH 7.4 and incubated with radioligand under the following conditions: CHO—C10, CHO—RNG, HT-29-[^3H]rauwolscine, 22° C., 30 minutes; RKC-[^3H]rauwolscine, 0° C., 120 minutes; and, HCC-[^3H]prazosin, 22° C., 30 minutes in a final volume of 500 μl. At the end of the incubation period, the samples were filtered through glass fiber filters (Whatman GF/B) in a 96 well cell harvester and rapidly washed four times with 4 ml of ice-cold 50 mM, Tris-HCl buffer. The filters were then oven dried and transferred to scintillation vials containing 5 ml of Beckman's Ready Protein® scintillation cocktail for counting. Specific binding defined by 10 μM phentolamine for competition studies were as follows: 0.3 nM [^3H]rauwolscine—CHO—C10 99%; 0.4 nM[^3H]rauwolscine —CHO—RNG 99%; 0.7;nM [^3H]rauwolscine—HT-29 90%; 1 nm [^3]rauwolscine—RKC 92%, and 0.3 nM [^3H]prazosin—HCC 87%. Protein concentrations were determined with a protein assay kit from Bio Rad. Binding isotherms, equilibrium dissociation and affinity constants were analyzed and determined by the non-linear least squares curve fitting programs AccuFit Competition/Saturation by Beckman.
Binding studies: The radioligands [^3H]rauwolscine (specific activity 80 Ci/mmol), [^3H]prazosin (specific activity 76 Ci/mmol) and [^3H]brimonidine (UK-14,304; specific activity 63 Ci/mmol) were obtained from New England Nuclear, Boston, Mass. Frozen membrane pellet was resuspended either 50 mM tris, 2 mM EGTA, 1 mM MgCl2, pH7.5 (RbKC, RbICB-[^3H]brimonidine); 50 mM tris, 0.5 mM EDTA, 5 mM NaCl, pH 7.7 (RbICB-[^3H]rauwolscine); 25 mM glycine/glycine, pH 7.4 (RtKC, CHO—C10, CH—RNG, HT-29, HCC) or 50 mM tris, 0.1 mM MnCl2, pH7.7 (RtCC). Membrane protein homogenate (75-200 μg) was incubated with radioligand under the following conditions: RbKC and RbICB-[^3H]rauwolscine, 22° C., 45 minutes; RtCC and RbICB-[^3H]brimondine, 22° C., 90 minutes; CHO—C10, CHO—RNG and HT-29-[^3H]rauwolscine, 22° C., 30 minutes; HCC—[^3H]prazosin, 22° C., 30 minutes; and, in a final volume of 250 or 500 μl. At the end of the incubation period, the samples were filtered through glass fiber filters (Whatman GF/B) in a 24 or 96 well cell harvester and rapidly washed four times with 4 mls of iced-cold 50 mM Tris-HCl buffer. The filters were then oven dried and transferred to scintillation vials containing 10 mls of, Beckman's Ready Protein® scintillation cocktail for counting. […] Protein concentrations were determined with a protein assay kit from Bio Rad. […]
In the case of `CCCCNC1=NCCO1`, the Ki is reported as 150 nM.
Compound `CCCCC1C2CCC(C2)C1NC1=NCCS1` (centres unmarked) has a Ki of 58 nM.
`CC(C)C1C2CCC(C2)C1NC1=NCCO1` (centres unmarked) gave a Ki of 43 nM.
Compound `C1CCC(C2C3CCC(C3)C2NC2=NCCN2)CC1` (centres unmarked) has a Ki of 288 nM.
For `CCCCC1C2CCC(C2)C1NC1=NCCO1` (centres unmarked), the Ki was 29 nM.
